Source: patent publication US20150216182A1, “COMPOSITIONS AND METHODS OF THE ATTRACTION AND REPULSION OF INSECTS” (Olfactor Laboratories, Inc., priority 2012, published 2015)
Entries after “also recorded” stand apart in the source; their conditions may differ. Where a name gives a salt, the structure may show the parent alone. Read-outs that look alike come from different tables or passages of the source.

What was measured:
larvae = test: larvicidal activity assay; type: in vivo; settings: for pest or weed control at 0.25 %: read-out: % Lethality with 0.25% compound conc.; for pest or weed control at 100 ppm: read-out: % Lethality at 100 ppm
Protocol: A 6-well plate (Corning Life Sciences, Tewksbury, Mass.) is used to test a compound's larvicidal activity. […] After a 24 hour exposure, the number of dead larvae are counted and recorded.
The results are presented in Table 17 as % lethality (the number of dead larvae divided by the total number of larvae).

cpA neurons = test: extracellular single-sensillum electrophysiology: activation of cpA neuronal activity; settings: for Class: Table 6, single compounds, increase over baseline cpA neuronal activity; for Comp A Class / Comp B Class: Table 9; for Comp A Class: component A tested individually; for Comp B Class: component B tested individually; for Class B (activator class of the individual component): Table 15, single component alone, Mod Actv
female mosquitoes [1] = test: whole plant or invertebrate; settings: 2 h; for mortality at 200 µg/mL: read-out: % mortality with 0.2 mg/ml; for mortality at 2000 µg/mL: read-out: % mortality with 2 mg/ml
Aedes aegypti mosquitoes = test: netsphere assay; type: in vivo; settings: baited BG-Sentinel trap, overnight collection; FIG. 3
Protocol: The netsphere assay was conducted in a semi-field containment area. The containment area was 1,000 square feet in size and environmental cues such as temperature, humidity, lighting and airflow were controlled to replicate conditions that Aedes aegypti mosquitoes would encounter in the wild. The containment area was conditioned for 2 hours prior to experimentation to allow for equalization of environmental conditions. Fifty female and five male mosquitoes were then released into the chamber and given one hour to acclimate to the environment. Following this, a BG-Sentinel trap (Biogents AG, Regensburg, Germany) was baited with either cyclopentanone, 2-pentanone or 2,4-lutidine and placed in the chamber in the presence of a non-baited BG-Sentinel (as a negative control for trap attraction). The collection was allowed to proceed overnight during which lighting conditions in the chamber were set to mimic those of starlight. The following day, mosquitoes caught in the trap were frozen at −20° C. and counted. These counts were compared to control experiments where CO2 from a tank, at a flow rate of 250 ml/min, was used as bait.

[2] = test system: bed bugs (Cimex lectularius); test: bed bug repellency assay; type: in vivo; settings: compound or combination on filter paper harborage, ten bed bugs
Outline: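 Ten Cimex lectularius per talc-lined petri dish chose between folded filter-paper harborages treated with isopropyl alcohol alone or compound in isopropyl alcohol […], dried before use. Bugs moved freely 5 min; occupancy beneath each tent recorded, with a solvent-only pairing as control.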

Aedes aegypti = test: landing assay; type: in vivo; settings: mesh treated with 1% in acetone, FIG. 2; for number of landings: 5 minute time course
From the text: Behavior assays were developed to aid in the evaluation of compounds and compositions of the present invention. These assays include the landing assay and the netsphere assay. These assays were utilized to determine the effectiveness of said compounds and compositions with regard to attracting or repelling mosquitoes of the species Aedes aegypti. Due to the highly conserved nature of the carbon dioxide receptor across the order Diptera, the results obtained for Aedes aegypti are likely to be intuitive with regard to other members of the mosquito family Culicidae as well as with regard to other dipteran family members.
The landing assay is an assay used to test for attraction toward human skin. A human gloved hand with an opening cutout protected by 2 layers of mesh was inserted into a 12×12×12 inch cage of female mosquitoes. The first layer of mesh was used to protect the human from chemical contact as well as mosquito contact. A second layer of mesh was treated with a chemical compound or composition that had been dissolved at a concentration of 1% in acetone and allowed to dry on said mesh for three minutes. This second layer of mesh was placed on top of the first mesh layer. The two mesh layers were separated by outer magnetic strips to hold the layers in place on the glove. This experimental design allows the test subjects, starved female mosquitoes, to be exposed to human skin odors as well as the compound or composition concurrently. The cage contained 30 female and 3 male mosquitoes. The landing of mosquitoes on the treated surface was videotaped over a 5 minute time course and the number of landings during that time period was recorded. Mesh treated with acetone alone was used as a negative control. This experiment was done in triplicate for each compound or composition tested. The results from one such experiment are pictured in FIG. 2.

bed bugs = test: bed bug luring assay; type: in vivo; settings: cottonball with 100 microliters solution, total 100 mg compound(s), 10 bed bugs, overnight
Protocol: Assays were conducted to measure the ability of compounds and compound combinations to attract bed bugs. A testing arena habitat comprising a small plastic container was placed inside of a larger, secondary container. The top half inch was removed from two bathroom sized solo cups and each cup was placed on opposite sides of the testing arena habitat, one inch away from the wall. Each outer part of the cup was textured using sandpaper, as bed bugs cannot climb smooth surfaces. A paper towel was used to line the floor of the testing arena habitat. The top, removed portion of one of the solo cups was placed mouth side down in the center of the arena. In one of the cups, a cottonball was placed and treated with 100 microliters of compound or compound combination solution [comprising a total of 100 mg of compound(s).] 10 bed bugs were placed within the center cut off cup top and the testing arena habitat was covered and placed within a dark, climate controlled room overnight. The next day, the number of bed bugs that crawled into the baited cup were recorded and the % attractancy was calculated as the percentage of bugs that crawled into the baited cup as compared to the total number of bed bugs. In the Table, “Att” refers to attractancy and “Cmpd” refers to compound.

female mosquitoes [3] = settings: in vivo
cpB and cpC neurons = test: extracellular single-sensillum electrophysiology: beta activators; type: in vivo, Aedes aegypti; settings: for Class A (beta activator, individual component): Table 15, single component alone, Beta Actv; for beta activator (stimulates cpB and cpC neuronal activity): single compound
From the text: Three types of CO2-responsive neurons reside in the maxillary palp of mosquitoes. These include cpA, cpB and cpC neurons. […] These neurons produce spikes with much lower amplitude than those produced by cpA neurons. Although the activity from cpB and cpC neurons cannot easily be distinguished from one another, their collective activity can be distinguished from cpA neurons due to their characteristic spikes. This is useful in the identification of compounds and compositions that only activate or inhibit cpB and cpC neurons or compounds and compositions that activate or inhibit both.
Carbon dioxide receptor neurons are housed within the basiconic sensilla of the mosquito maxillary palp. While activity from cpA neurons produces the largest amplitude spike, cpB and cpC neurons present in this region are also responsive to skin odors. Activity from these neurons can also be detected through the electrophysiological methods described in Example 1.
Although the activity from cpB and cpC neurons cannot easily be distinguished from one another, their collective activity can be distinguished from cpA neurons due to their production of spikes with much lower amplitude than those produced by cpA neurons.

[4] = 0.25% compound, 24 hour exposure, dead larvae / total larvae
[5] = 100 ppm compound, 24 hour exposure, dead larvae / total larvae

Cc1ccnc(C)c1 [OLI0001, 2,4-lutidine] was tested, and the pest or weed control at 0.25 % (larvae; [4]) was 100%, the pest or weed control at 100 ppm (larvae; [5]) was 0% and the “effect on CO2-receptor activity (FIG. 1)” value (cpA neurons; 1% concentration in paraffin oil) was “activator”. For the same compound, the Class (cpA neurons) was “Strong Activator (strong activators yield an increase in activity that is >60 spk/sec over baseline neuronal activity)”, the “activator class of single compound” value (cpA neurons) was “strong activator (spike rate of 60-100 spk/sec over the baseline activity of the neuron)” and the mortality at 200 µg/mL (female mosquitoes [1]) was 0%. The mortality at 2000 µg/mL (female mosquitoes [1]) was 0%, the “behaviour in netsphere assay (attractant or repellent)” value (“behaviour in netsphere assay” below) (Aedes aegypti mosquitoes) was “acted as a repellent” and the “% Rep (bed bug repellency)” value [2] was 39%.

For CCc1cnccn1 [OLI0002, 2-ethylpyrazine], the pest or weed control at 0.25 % (larvae; [4]) was 50%, the pest or weed control at 100 ppm (larvae; [5]) was 0% and the Class (cpA neurons) was “Strong Activator (strong activators yield an increase in activity that is >60 spk/sec over baseline neuronal activity)”. For the same compound, the “activator class of single compound” value (cpA neurons) was “activator”, the mortality at 200 µg/mL (female mosquitoes [1]) was 0% and the mortality at 2000 µg/mL (female mosquitoes [1]) was 0%. The number of landings (Aedes aegypti) was 12 landings, the “behaviour in landing assay (lure or repellent)” value (“behaviour in landing assay” below) (Aedes aegypti) was “repellent” and the “% Rep (bed bug repellency)” value [2] was 49%.

In the case of O=C1CCCC1 [OLI0008, cyclopentanone], the pest or weed control at 0.25 % (larvae; [4]) is reported as 85%, the pest or weed control at 100 ppm (larvae; [5]) is reported as 0% and the Class (cpA neurons) is reported as “Strong Activator (strong activators yield an increase in activity that is >60 spk/sec over baseline neuronal activity)”. The mortality at 200 µg/mL (female mosquitoes [1]) was 0%, the mortality at 2000 µg/mL (female mosquitoes [1]) was 0% and the number of landings (Aedes aegypti) was 39 landings. The “behaviour in landing assay” value (Aedes aegypti) was “act as lures”, the “behaviour in netsphere assay” value (Aedes aegypti mosquitoes) was “act as attractants; also recorded: attract mosquitoes” and the “% Att (bed bug attractancy)” value (bed bugs) was 50%.

In the case of CCCC(C)=O [OLI0018, 2-pentanone], the pest or weed control at 100 ppm (larvae; 24 h) is reported as 0%, the pest or weed control at 0.25 % (larvae; 24 h) is reported as 0% and the Class (cpA neurons) is reported as “Moderate Activator (Moderate activators yield an increase in neuronal activity that is between 40 and 60 spk/sec over baseline neuronal activity)”. The “Comp A Class” value (cpA neurons) was “Mod”, the “Comp B Class” value (cpA neurons) was “Mod” and the “Class B (activator class of the individual component)” value (from here on “Class B”) (cpA neurons) was “Mod”. The mortality at 200 µg/mL (female mosquitoes [1]) was 0%, the mortality at 2000 µg/mL (female mosquitoes [1]) was 0% and the number of landings (Aedes aegypti) was 37 landings. The “behaviour in landing assay” value (Aedes aegypti) was “act as lures”, the “behaviour in netsphere assay” value (Aedes aegypti mosquitoes) was “act as attractants; also recorded: attract mosquitoes” and the “% Att (bed bug attractancy)” value (bed bugs) was 30%.

In the case of CSC(C)=O [OLI0025, methanethiol acetate], the “% Lethality with 0.25% compound conc.” value (larvae; [4]) is reported as 100% lethal, the “% Lethality at 100 ppm” value (larvae; [5]) is reported as 0% lethal and the Class (cpA neurons) is reported as “Moderate Activator (Moderate activators yield an increase in neuronal activity that is between 40 and 60 spk/sec over baseline neuronal activity)”. The “Comp B Class” value (cpA neurons) was “Mod”, the “Class B” value (cpA neurons) was “Mod” and the “% Att (bed bug attractancy)” value (bed bugs) was 20%. The “% mortality with 0.2 mg/ml” value (female mosquitoes [3]) was 0% and the “% mortality with 2 mg/ml” value (female mosquitoes [3]) was 0%.

In the case of C/C=C/C(=O)OC [OLI0026, methyl crotonate], the pest or weed control at 0.25 % (larvae; [4]) is reported as 87.5%, the pest or weed control at 100 ppm (larvae; [5]) is reported as 0% and the Class (cpA neurons) is reported as “Moderate Activator (Moderate activators yield an increase in neuronal activity that is between 40 and 60 spk/sec over baseline neuronal activity)”. The “Comp B Class” value (cpA neurons) was “Mod”, the “Class B” value (cpA neurons) was “Mod” and the mortality at 200 µg/mL (female mosquitoes [1]) was 0%. For the same compound, the mortality at 2000 µg/mL (female mosquitoes [1]) was 0%, the “% Att (bed bug attractancy)” value (bed bugs) was 20% and the “% Rep (bed bug repellency)” value [2] was 38%.

COC(=O)CCC(C)=O [OLI0027, methyl levulinate] was tested, and the pest or weed control at 0.25 % (larvae; [4]) was 50%, the pest or weed control at 100 ppm (larvae; [5]) was 0% and the Class (cpA neurons) was “Moderate Activator (Moderate activators yield an increase in neuronal activity that is between 40 and 60 spk/sec over baseline neuronal activity)”. For the same compound, the “Comp A Class” value (cpA neurons) was “Mod”, the “activator class of single compound” value (cpA neurons) was “moderate cpA activator” and the mortality at 200 µg/mL (female mosquitoes [1]) was 0%. The mortality at 2000 µg/mL (female mosquitoes [1]) was 0%, the “Class A (beta activator, individual component)” value (cpB and cpC neurons) was “Beta” and the “beta activator (stimulates cpB and cpC neuronal activity)” value (cpB and cpC neurons) was “beta activators”. For the same compound, the “% Att (bed bug attractancy)” value (bed bugs) was 10% and the “% Rep (bed bug repellency)” value [2] was 20%.

CCCCCCOC=O [OLI0097, hexyl formate] was tested, and the pest or weed control at 100 ppm (larvae; 24 h) was 0%, the pest or weed control at 0.25 % (larvae; 24 h) was 5% and the mortality at 200 µg/mL (female mosquitoes [1]) was 0%. For the same compound, the mortality at 2000 µg/mL (female mosquitoes [1]) was 0%, the “Class A (beta activator, individual component)” value (cpB and cpC neurons) was “Beta” and the “beta activator (stimulates cpB and cpC neuronal activity)” value (cpB and cpC neurons) was “beta activators”. The “% Att (bed bug attractancy)” value (bed bugs) was 30% and the “% Rep (bed bug repellency)” value [2] was 44%.

In the case of CCC(=O)OCCC(C)C [OLI0099, isoamyl propionate], the pest or weed control at 0.25 % (larvae; [4]) is reported as 0%, the pest or weed control at 100 ppm (larvae; [5]) is reported as 0% and the mortality at 200 µg/mL (female mosquitoes [1]) is reported as 0%. The mortality at 2000 µg/mL (female mosquitoes [1]) was 0%, the “Class A (beta activator, individual component)” value (cpB and cpC neurons) was “Beta” and the “beta activator (stimulates cpB and cpC neuronal activity)” value (cpB and cpC neurons) was “beta activators”. The “% Att (bed bug attractancy)” value (bed bugs) was 10% and the “% Rep (bed bug repellency)” value [2] was 17%.
